Data published in patent US20150057266A1 (AbbVie Inc., priority 2005, published 2015).

Assay: intrinsic solubility (aqueous medium/lower pH)
Type: physicochemical

intrinsic solubility: 0.0423 µg/mL
SMILES: Cc1cccc(Nc2ccccc2C(=O)O)c1C [mefanamic acid]
